Test results as given in patent publication US9579325B2, “Modulators of TNF-α signaling” (Genzyme Corporation, priority 2000, dated 2017).

system: L929 cells; experiment: TNF High Throughput Screen (TNF-α driven apoptosis assay); assay type: cell-based, mouse; details: Mus musculus, compound at 1 μM, human TNF-α + actinomycin D, read-out: TNFα % Inh. @ 1 μM
Text: Description of Table V: The results shown in Table V were obtained using the TNF-α assays performed as described in the protocols entitled “Method for TNF High Throughput Screen” and “Method for VCAM High Throughput Screen”, which are detailed below. These assays measure a cellular response to TNF-α stimulation, and the data published in the table are expressed as percentage inhibitions. Percentage inhibition is computed on a scale of 0 to 100% where 0 percent inhibition means the compound has no effect in the assay (the response is indistinguishable from TNF-α treatment alone), and 100% inhibition means that when the compound is present at the stated concentration, the response in the assay is the same as if TNF-α were not added. These two assays measure two different outcomes of TNF-α treatment, cell death and Vascular Cell Adhesion Molecule (VCAM) expression, and capture two of TNF-α's many biological effects. TNF-α induced apoptosis is a mechanism by which TNF-α production during immune/inflammatory responses can lead to direct cellular and tissue damage. TNF-α VCAM expression in endothelial cells is a response that allows leukocytes to leave the blood and enter a site of immune/inflammatory response. Both of these activities could lead to pathology in immune/inflammatory diseases. In the first column of the table, the percentage inhibition of the TNF-α driven apoptosis assay when the compounds are tested at 1 μM concentration is presented. The second column in the table lists the IC50 for the compound, a standard measure using a dilution series in the assay, and fitting a sigmoidal curve to the resulting dose-response curve. The IC50 is the concentration (derived analytically from the sigmoidal function) at which the compound would inhibit 50% of the response in the assay. The third and fourth column list the corresponding analysis for the TNF-α driven VCAM assay. In Table VI, data corresponding to the data in column 1 of Table V is shown, with human cells replacing the mouse cells used in the high throughput screen. […] As a consequence, the compounds will have use in treating more than one TNF-α mediated condition, and may be selected according to the manner in which the condition manifests. This corresponds to the use of these compounds in the treatment of human disease.
TNF High Throughput Screen.
• 1. Plate 4×10^4 L929 cells in 100 μl of complete EMEM in Costar 96 well plates in PM. • 2. The next day, pretreat with compound, inhibitor and control vehicle for 2 hours. • 3. After 2 hours pretreatment, add 10 μl 5 ng/ml human TNF-α and actinomycin D (40 μg/ml final concentration). • 4. Incubate overnight. • 5. In AM, remove supernatant. • 6. Wash on a plate washer (0.9% NaCl). • 7. Add 100 μl Crystal Violet 0.1% in 20% ETOH. • 8. Incubate at RT for 10 minutes. • 9. Wash on plate washer. • 10. Air dry wells at 37° C. • 11. Add 100 μl of methanol to each well. • 12. Shake plates on orbital shaker and read at 595 nm on plate reader. VCAM High Throughput Screen: Protocol: • 1. Plate Primary human umbilical vein endothelial cells at 1.8×10^4 cells/well in a 96-well tissue culture plate. • 2. Return Plates to 37° C. incubator for 48-72 hours before assay. • 3. On assay day, aspirate wells and add 1804, of endothelial growth cell medium (EGM) to each well. • 4. Add Compound to each well. • 5. Shake plates for 3 minutes. • 6. Incubate plate for 1 hour at 37° C. • 7. Add Tumor Necrosis Factor (TNF) at 1.0 ng/ml final concentration. • 8. Shake plates for 3 minutes. • 9. Incubate plate for 2 hours at 37° C. • 10. Remove plate from incubator and wash plate 3 times with phosphate buffered saline (PBS) using a plate washer. • 11. Add anti-VCAM antibody at 0.5 μg/ml final concentration. • 12. Incubate at 4° C. overnight. • 13. Wash 3 times with PBS on plate washer. • 14. Add goat anti-mouse horseradish peroxidase conjugate. • 15. Incubate at room temperature for one hour. • 16. Wash 3 times with PBS on plate washer. • 17. […]

SMILES	inhibition at 1 µM [%]
N#Cc1cccc(C(C(=O)NC(Cc2ccccc2)c2ccccc2)N(CCc2c[nH]cn2)C(=O)c2ccccc2C(=O)c2ccc(Cl)cc2)c1 (stereo not drawn) [Compound 64]	63
N#Cc1cccc(C(C(=O)NC(c2ccccc2)c2ccccc2)N(CCc2c[nH]cn2)C(=O)c2cccs2)c1 (stereo not drawn) [Compound 90]	51
N#Cc1cccc(C(C(=O)NCCC(c2ccccc2)c2ccccc2)N(CCc2c[nH]cn2)C(=O)Cc2ccc3ccccc3c2)c1 (stereo not drawn) [Compound 67]	52
CN(C)CCCN(C(=O)c1ccccc1C(=O)c1ccccc1)C(C(=O)NC(C)(C)CC(C)(C)C)c1cccc(C#N)c1 (stereo not drawn) [Compound 63]	55
COc1ccc(Oc2cccc(C(C(=O)NCc3cc(OC)c(OC)c(OC)c3)N(C(=O)CC(c3ccccc3)c3ccccc3)c3ccccc3C(N)=O)c2)cc1 (stereo not drawn) [Compound 57]	56
COc1ccc(CCNC(=O)C(c2cccc(C#N)c2)N(CCc2c[nH]cn2)C(=O)Cc2c[nH]c3ccccc23)cc1 (stereo not drawn) [Compound 77]	54
COc1ccc(CCNC(=O)C(c2cccc(C#N)c2)N(CCc2c[nH]cn2)C(=O)c2cccn2C)cc1 (stereo not drawn) [Compound 71]	57
N#Cc1cccc(C(C(=O)NC(c2ccccc2)c2ccccc2)N(CCc2c[nH]cn2)C(=O)c2ccccc2-c2ccccc2)c1 (stereo not drawn) [Compound 88]	53
N#Cc1cccc(C(C(=O)NCC(c2ccccc2)c2ccccc2)N(CCc2c[nH]cn2)C(=O)c2cnc3ccccc3n2)c1 (stereo not drawn) [Compound 80]	53
N#Cc1cccc(C(C(=O)NCC(c2ccccc2)c2ccccc2)N(CCc2c[nH]cn2)C(=O)c2cccc(F)c2)c1 (stereo not drawn) [Compound 83]	56
O=C(NCC(c1ccccc1)c1ccccc1)C(c1ccccc1)N(CCc1c[nH]cn1)C(=O)c1cccc2c1-c1ccccc1C2 (stereo not drawn) [Compound 58]	50
COc1ccc(CCNC(=O)C(c2cccc(C#N)c2)N(CCc2c[nH]cn2)C(=O)C(C)C)cc1 (stereo not drawn) [Compound 92]	52
N#Cc1cccc(C(C(=O)NCC(c2ccccc2)c2ccccc2)N(CCc2c[nH]cn2)C(=O)CCCc2c[nH]c3ccccc23)c1 (stereo not drawn) [Compound 84]	52
COc1ccc(CCNC(=O)C(c2cccc(C#N)c2)N(CCc2c[nH]cn2)C(=O)c2cccc(Cl)c2)cc1 (stereo not drawn) [Compound 79]	62
N#Cc1cccc(C(C(=O)NCCC(c2ccccc2)c2ccccc2)N(CCc2c[nH]cn2)C(=O)CCC2CCCCC2)c1 (stereo not drawn) [Compound 69]	61
COc1cccc(C(=O)N(CCc2c[nH]cn2)C(C(=O)NCCC(c2ccccc2)c2ccccc2)c2cccc(C#N)c2)c1 (stereo not drawn) [Compound 70]	58
COc1ccc(CCNC(=O)C(c2cccc(C#N)c2)N(CCc2c[nH]cn2)C(=O)CCCc2c[nH]c3ccccc23)cc1 (stereo not drawn) [Compound 76]	56

same assay, conditions: Mus musculus, human TNF-α + actinomycin D, read-out: TNFα IC50

SMILES	IC50 [µM]
N#Cc1cccc(C(C(=O)NCC(c2ccccc2)c2ccccc2)N(CCCc2c[nH]cn2)C(=O)c2ccccc2C(=O)c2ccccc2)c1 (stereo not drawn) [Compound 24]	1.03
COc1ccc(CC(C(=O)NCC(c2ccccc2)c2ccccc2)N(CCc2c[nH]cn2)C(=O)c2ccccc2C(=O)c2ccccc2)cc1 (stereo not drawn) [Compound 35]	2.64
O=C(c1ccccc1)c1ccccc1C(=O)N(CCc1c[nH]cn1)C(Cc1ccccc1Cl)C(=O)NCC(c1ccccc1)c1ccccc1 (stereo not drawn) [Compound 30]	2.36
COc1ccccc1CC(C(=O)NCC(c1ccccc1)c1ccccc1)N(CCc1c[nH]cn1)C(=O)c1ccccc1C(=O)c1ccccc1 (stereo not drawn) [Compound 33]	2.35
COc1c(Sc2ccc(Cl)cc2)c(C)nn1-c1nccc(-c2ccccn2)n1 [Compound 148, 2-[4-(4-Chloro-phenylsulfanyl)-5-methoxy-3-methyl-pyrazol-1-yl]-4-pyridin-2-yl-pyrimidine]	32.1
COc1ccc(C(=O)c2ccccc2C(=O)N(CCc2c[nH]cn2)C(C(=O)NCC(c2ccccc2)c2ccccc2)c2cccc(C#N)c2)cc1 (stereo not drawn) [Compound 19]	0.457
Cc1nn(-c2nccc(-c3ccccn3)n2)c(C)c1Oc1ccc(C(C)C)cc1 [Compound 97, 2-[4-(4-Isopropyl-phenoxy)-3,5-dimethyl-pyrazol-1-yl]-4-pyridin-2-yl-pyrimidine]	0.397
O=C(c1ccccc1)c1ccccc1C(=O)N(CCc1c[nH]cn1)C(Cc1ccccc1F)C(=O)NCC(c1ccccc1)c1ccccc1 (stereo not drawn) [Compound 36]	2.15
O=C(c1ccccc1)c1ccccc1C(=O)N(CCc1c[nH]cn1)C(Cc1ccccc1C(F)(F)F)C(=O)NCC(c1ccccc1)c1ccccc1 (stereo not drawn) [Compound 27]	2.72
Nc1nc(-c2ccccn2)nc(-n2nc(-c3ccc(Cl)cc3)nc2Cc2ccccc2)n1 [Compound 133, 4-[5-Benzyl-3-(4-chloro-phenyl)-[1,2,4]triazol-1-yl]-6-pyridin-2-yl-[1,3,5]triazin-2-ylamine]	19.5
CN(C)CCN(C(=O)c1ccccc1C(=O)c1ccccc1)C(Cc1ccccc1)C(=O)NCC(c1ccccc1)c1ccccc1 (stereo not drawn) [Compound 41]	6.49
N#Cc1cccc(C(C(=O)NCC(c2ccccc2)c2ccccc2)N(CCc2c[nH]cn2)C(=O)c2ccccc2C(=O)c2ccccn2)c1 (stereo not drawn) [Compound 15]	0.386
CN(C)CCN(C(=O)c1ccccc1C(=O)c1ccccc1)C(C(=O)NCC(c1ccccc1)c1ccccc1)c1cccc(C#N)c1 (stereo not drawn) [Compound 9]	0.496
N#Cc1cccc(C(C(=O)NCC(c2ccccc2)c2ccccc2)N(CCn2ccnc2)C(=O)c2ccccc2C(=O)c2ccccc2)c1 (stereo not drawn) [Compound 21]	0.913
O=C(c1ccccc1)c1ccccc1C(=O)N(CCc1c[nH]cn1)C(C(=O)NCC(c1ccccc1)c1ccccc1)c1ccc(-c2ccccc2)o1 (stereo not drawn) [Compound 52]	3.49
N#Cc1cccc(C(C(=O)NCC(c2ccccc2)c2ccccc2)N(CCc2c[nH]cn2)C(=O)c2ccccc2-c2ccco2)c1 (stereo not drawn) [Compound 22]	3.85
N#Cc1cccc(C(C(=O)NCC(c2ccccc2)c2ccccc2)N(CCc2c[nH]cn2)C(=O)c2ccccc2Cc2ccccc2)c1 (stereo not drawn) [Compound 10]	3.68
Cn1cnc(CCN(C(=O)c2ccccc2C(=O)c2ccccc2)C(C(=O)NCC(c2ccccc2)c2ccccc2)c2cccc(C#N)c2)c1 (stereo not drawn) [Compound 13]	1.37
CN(C)CCN(C(=O)c1ccccc1C(=O)c1ccccc1)C(C(=O)NCC(c1ccccc1)c1ccccc1)c1ccccc1 (stereo not drawn) [Compound 56]	6.63
N#Cc1cccc(C(C(=O)NCC(c2ccccc2)c2ccccc2)N(CCc2c[nH]cn2)C(=O)c2ccccc2-c2cccs2)c1 (stereo not drawn) [Compound 29]	3.72
N#Cc1cccc(C(C(=O)NCC(c2ccccc2)C2CCCC2)N(CCc2c[nH]cn2)C(=O)c2ccccc2C(=O)c2ccccc2)c1 (stereo not drawn) [Compound 25]	1.58
CN(CC(c1ccccc1)c1ccccc1)C(=O)C(c1ccccc1)N(CCc1c[nH]cn1)C(=O)c1ccccc1C(=O)c1ccccc1 (stereo not drawn) [Compound 26, 2-Benzoyl-N-{[(2,2-diphenyl-ethyl)-methyl-carbamoyl]-phenyl-methyl}-N-[2-(1H-imidazol-4-yl)-ethyl]-benzamide]	3.36
N#Cc1cccc(C(C(=O)NCC(C2CCCCC2)C2CCCCC2)N(CCc2c[nH]cn2)C(=O)c2ccccc2C(=O)c2ccccc2)c1 (stereo not drawn) [Compound 23]	2.58
Cn1cncc1CCN(C(=O)c1ccccc1C(=O)c1ccccc1)C(C(=O)NCC(c1ccccc1)c1ccccc1)c1cccc(C#N)c1 (stereo not drawn) [Compound 14]	1.79
O=C(c1ccccc1)c1ccccc1C(=O)N(CCc1c[nH]cn1)C(Cc1ccc(F)cc1)C(=O)NCC(c1ccccc1)c1ccccc1 (stereo not drawn) [Compound 38]	2.79
